# Test results as given in the NIST ThermoML archive (doi:10.1021/je0602263).
# ± gives the expanded uncertainty stated by the source.
# Experiment: xn = mol fraction of the nth substance listed
# Settings: 298.15 K, 101 kPa, Liquid
compound,measurement,setting,value
COC(=O)OC [dimethyl carbonate] + Cc1ccccc1,mass density,x1 = 0.0498,869.9 ± 0.34 kg/m3
same,mass density,x1 = 0.0998,877.68 ± 0.33 kg/m3
same,mass density,x1 = 0.15,885.75 ± 0.32 kg/m3
same,mass density,x1 = 0.1999,893.96 ± 0.31 kg/m3
same,mass density,x1 = 0.2498,902.39 ± 0.3 kg/m3
same,mass density,x1 = 0.2999,911.1 ± 0.29 kg/m3
same,mass density,x1 = 0.3498,919.98 ± 0.28 kg/m3
same,mass density,x1 = 0.4,929.22 ± 0.27 kg/m3
same,mass density,x1 = 0.4498,938.57 ± 0.26 kg/m3
same,mass density,x1 = 0.4999,948.26 ± 0.25 kg/m3
same,mass density,x1 = 0.5499,958.27 ± 0.24 kg/m3
same,mass density,x1 = 0.5999,968.51 ± 0.22 kg/m3
same,mass density,x1 = 0.65,979.06 ± 0.21 kg/m3
same,mass density,x1 = 0.7,989.94 ± 0.19 kg/m3
same,mass density,x1 = 0.7499,1001.14 ± 0.18 kg/m3
same,mass density,x1 = 0.8001,1012.77 ± 0.19 kg/m3
same,mass density,x1 = 0.8501,1024.73 ± 0.2 kg/m3
same,mass density,x1 = 0.8998,1037.03 ± 0.22 kg/m3
same,mass density,x1 = 0.9502,1049.89 ± 0.23 kg/m3
same,mass density,x1 = 1,1063.19 ± 0.25 kg/m3
CCCCCCC [heptane] + COC(=O)OC,mass density,x2 = 0,680.52 ± 0.63 kg/m3
COC(=O)OC [dimethyl carbonate] + CC(C)CC(C)(C)C,mass density,x1 = 0.0497,696.81 ± 0.6 kg/m3
same,mass density,x1 = 0.1,706.22 ± 0.59 kg/m3
same,mass density,x1 = 0.15,716.12 ± 0.57 kg/m3
same,mass density,x1 = 0.2001,726.95 ± 0.56 kg/m3
same,mass density,x1 = 0.2499,738.38 ± 0.54 kg/m3
same,mass density,x1 = 0.2998,750.67 ± 0.53 kg/m3
same,mass density,x1 = 0.3498,763.75 ± 0.51 kg/m3
same,mass density,x1 = 0.4004,777.96 ± 0.49 kg/m3
same,mass density,x1 = 0.4498,792.89 ± 0.48 kg/m3
same,mass density,x1 = 0.5002,809.29 ± 0.46 kg/m3
same,mass density,x1 = 0.5499,826.46 ± 0.44 kg/m3
same,mass density,x1 = 0.5998,845.2 ± 0.41 kg/m3
same,mass density,x1 = 0.6502,865.43 ± 0.38 kg/m3
same,mass density,x1 = 0.7,887.02 ± 0.34 kg/m3
same,mass density,x1 = 0.75,910.31 ± 0.31 kg/m3
same,mass density,x1 = 0.8,935.94 ± 0.27 kg/m3
same,mass density,x1 = 0.8499,963.69 ± 0.23 kg/m3
same,mass density,x1 = 0.8999,993.77 ± 0.19 kg/m3
same,mass density,x1 = 0.9498,1026.79 ± 0.21 kg/m3
same,mass density,x1 = 1,1063.19 ± 0.25 kg/m3
c1ccccc1 [benzene] + COC(=O)OC,mass density,x2 = 0,873.56 ± 0.34 kg/m3
COC(=O)OC [dimethyl carbonate] + c1ccccc1,mass density,x1 = 0.0499,882 ± 0.32 kg/m3
same,mass density,x1 = 0.1,890.57 ± 0.31 kg/m3
same,mass density,x1 = 0.15,899.18 ± 0.3 kg/m3
same,mass density,x1 = 0.2001,907.93 ± 0.29 kg/m3
same,mass density,x1 = 0.2499,916.61 ± 0.28 kg/m3
same,mass density,x1 = 0.3,925.59 ± 0.27 kg/m3
same,mass density,x1 = 0.3498,934.53 ± 0.26 kg/m3
same,mass density,x1 = 0.4,943.7 ± 0.25 kg/m3
same,mass density,x1 = 0.45,952.89 ± 0.24 kg/m3
same,mass density,x1 = 0.5001,962.25 ± 0.23 kg/m3
same,mass density,x1 = 0.55,971.69 ± 0.22 kg/m3
same,mass density,x1 = 0.6,981.28 ± 0.2 kg/m3
same,mass density,x1 = 0.6499,990.96 ± 0.19 kg/m3
same,mass density,x1 = 0.7001,1000.84 ± 0.18 kg/m3
same,mass density,x1 = 0.7501,1010.88 ± 0.19 kg/m3
same,mass density,x1 = 0.8001,1021.01 ± 0.2 kg/m3
same,mass density,x1 = 0.8498,1031.36 ± 0.21 kg/m3
same,mass density,x1 = 0.8999,1041.69 ± 0.22 kg/m3
same,mass density,x1 = 0.9501,1052.35 ± 0.24 kg/m3
same,mass density,x1 = 1,1063.19 ± 0.25 kg/m3
"CC(C)CC(C)(C)C [2,2,4-trimethylpentane] + COC(=O)OC",mass density,x2 = 0,688.04 ± 0.62 kg/m3
COC(=O)OC [dimethyl carbonate] + CCCCCCC,mass density,x1 = 0.0501,690.16 ± 0.61 kg/m3
same,mass density,x1 = 0.0999,700.47 ± 0.6 kg/m3
same,mass density,x1 = 0.15,711.7 ± 0.58 kg/m3
same,mass density,x1 = 0.1998,723.65 ± 0.56 kg/m3
same,mass density,x1 = 0.2501,736.28 ± 0.55 kg/m3
same,mass density,x1 = 0.2999,749.59 ± 0.53 kg/m3
same,mass density,x1 = 0.3501,763.95 ± 0.51 kg/m3
same,mass density,x1 = 0.4,779.05 ± 0.49 kg/m3
same,mass density,x1 = 0.4499,795.07 ± 0.48 kg/m3
same,mass density,x1 = 0.5001,812.18 ± 0.46 kg/m3
same,mass density,x1 = 0.5498,830.25 ± 0.43 kg/m3
same,mass density,x1 = 0.6,849.67 ± 0.4 kg/m3
same,mass density,x1 = 0.6499,870.23 ± 0.37 kg/m3
same,mass density,x1 = 0.7001,892.23 ± 0.34 kg/m3
same,mass density,x1 = 0.75,915.72 ± 0.3 kg/m3
same,mass density,x1 = 0.8,941.09 ± 0.26 kg/m3
same,mass density,x1 = 0.8501,968.3 ± 0.22 kg/m3
same,mass density,x1 = 0.9001,997.61 ± 0.18 kg/m3
same,mass density,x1 = 0.9501,1029.09 ± 0.21 kg/m3
same,mass density,x1 = 1,1063.19 ± 0.25 kg/m3
Cc1ccccc1 [toluene] + COC(=O)OC,mass density,x2 = 0,862.5 ± 0.35 kg/m3
